Results on 3 compounds are retold here after article PMC6593224, “Validation and Invalidation of Chemical Probes for the Human N-myristoyltransferases” (Cell Chemical Biology, 2019).

pIC50, pKd: −log10 of the molar value. Where two headings read alike, the source gives them in different places.

The target of one series is both NMTs. Also noted: method as in Mousnier et al., 2018. The note with it: ref Mousnier et al., 2018; cited from earlier work.
Series [1] can be described thus: Precipitation in rNMT1 buffer, absorbance at 750 nm. It is filed as physicochemical. The following applies: 15 min at room temperature. The protocol: Absorbance at 750 nm was determined after 15 min at room temperature.
and 72 h. Mean of quadruplicate measurements, ± SEM.
(E) Nuclei counts of HeLa cells after exposure to 1-5 for 24, 48 and 72 h. Mean of quadruplicate

Series [2] has as its system NMT within living cells (N-myristoylation). The experiment in a line: YnMyr metabolic tagging, in-gel fluorescence. The following applies: for N-myristoylation in cells (summary of assays): 1 μM IMP-366, 100 nM IMP-1088, 100 μM 2-hydroxymyristic acid, 30 μM D-NMAPPD, 10 μM Tris-DBA palladium, 18 h; for quantification of YnMyr tagging of ten bands: MDA-MB-231 and HeLa, 100 μM 3, 30 μM 4, 10 μM 5.

Series [3] deals with N-myristoylation in living cells. The following applies: cited from earlier work.
Series [4] has as its system NMT (in-cell target engagement, ARL1). The experiment in a line: Sortase A assay (peptide addition to ARL1), human cell lines.
Protocol: (§1) The homogenate was further disrupted by shearing it three times through a 30G needle. […] Hereafter the reaction was quenched with 5 mM EDTA and stored at −20°C until further analysis.
The next series concerns MDA-MB-231 cells. Briefly: Nuclei counting as a measure for proliferation. Type of series: cell-based, human. The protocol:
After 24, 48 or 72 h of exposure, cell viability was evaluated by determination of metabolic activity and counting of cellular nuclei. Metabolic activity was assessed by addition of Cell Titer Blue (Promega), incubation at 37°C and the appropriate percentage of CO2 for 3 h, followed by measuring the absorbance at 490 nm using a PHERAstar (BMG LabTech, Germany). For nuclei counting, cells were fixed with 4% (w/v) paraformaldehyde at room temperature (RT) for 20 min, permeabilised with 0.2% (v/v) Triton X-100 in PBS at RT for 20 min, DNA stained with 1 μg/mL DAPI (Life Technologies, D1306) at RT for 1 h, followed by three washes with PBS. Whole well images for the total number of cells were acquired with an Acumen Cellista (TTP Labtech), using the 405 nm excitation / FL1 (420-500 nm) emission channel. The cell viability was normalised to the negative control (DMSO) and positive control (Staurosporin and puromycin), followed by fitting the four-parametric variable slope function (GraphPad Prism 5.0) to data of quadruplicate experiments.

For series [5], the system named is N-myristoylated proteome (NMT substrates). Briefly: Quantitative chemical proteomics of YnMyr-tagged proteins. Type of series: cell-based, human. The following applies: MDA-MB-231 (n = 75). The text has this:
HeLa and MDA-MB-231 cells were exposed (in triplicate) to 1–5, in a setup identical to that used for in-gel analyses (Figure 2A), with the exception that YnMyr-tagged proteins were ligated to AzRB. Labeled proteins were enriched on NeutrAvidin-agarose and digested on-resin with trypsin; peptides were labeled with tandem mass tag, and analyzed and quantified by nano-liquid chromatography-tandem mass spectrometry on a Thermo Q-Exactive instrument.
Cysteine carbamidomethylation was used as a fixed modification and methionine oxidation and N-terminal acetylation as variable modifications. ‘Trypsin/P’ was chosen as digestion mode enzyme, and up to two missed cleavages were allowed. The ‘match between run’ option was selected, along with ‘unique and razor peptides’ for protein quantification. TMT was set per sample group. […] The false discovery rate was set to 0.01 for peptides and a minimum of 2 unique peptides per protein were required. The mass spectrometry proteomics data have been deposited to the ProteomeXchange Consortium via the PRIDE partner repository with the dataset identifier PXD012722.

The target of series [6] is T1, recombinant human N-myristoyltransferase 1 (rNMT1) (Homo sapiens, UniProt P30419).
T1 construct: Full-length HsNMT1 enzyme was produced as previously described; made in house
T1 sequence (P30419 1-496): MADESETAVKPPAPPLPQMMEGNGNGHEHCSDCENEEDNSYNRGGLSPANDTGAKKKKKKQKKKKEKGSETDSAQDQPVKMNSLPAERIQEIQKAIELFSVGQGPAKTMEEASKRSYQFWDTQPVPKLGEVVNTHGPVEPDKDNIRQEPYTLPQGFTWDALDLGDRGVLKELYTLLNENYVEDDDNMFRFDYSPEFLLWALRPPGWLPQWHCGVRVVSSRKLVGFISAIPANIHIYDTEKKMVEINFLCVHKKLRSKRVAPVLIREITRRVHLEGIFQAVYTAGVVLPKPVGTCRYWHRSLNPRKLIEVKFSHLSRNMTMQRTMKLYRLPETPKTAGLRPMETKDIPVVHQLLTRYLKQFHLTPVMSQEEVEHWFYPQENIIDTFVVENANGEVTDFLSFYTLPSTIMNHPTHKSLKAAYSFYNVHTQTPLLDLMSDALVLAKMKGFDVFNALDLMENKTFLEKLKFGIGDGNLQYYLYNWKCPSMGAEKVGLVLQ
Briefly: Enzymatic HsNMT1 assay (CPM detection of CoA thiol by-product). It is filed as biochemical. The note with it: for rNMT1 activity: below 300 μM. As to the method: After background correction, IC50 values were determined by fitting the four-parametric variable slope function (GraphPad Prism 5.0), with the stated IC50 values being the mean of two independent assays performed in triplicate.

A further series has as its system human NMTs. The following applies: read-out: In Vitro IC50, Reported, cited from earlier work.
Series [7] in a line: Precipitation in growth media. The following applies: 3 at 1 mM, directly or in a mixture with BSA; data not shown.
In series [8] the test system is HeLa cells. Briefly: Cell-cycle distribution by FACS (DNA content, EdU). The note with it: 18 h, 30 μM 4, 10 μM 5. (In general: Flow cytometry measures light scatter and fluorescence of single cells or particles in a stream.)
The subject of series [9] is de novo protein synthesis. The experiment in a line: L-AHA tagging of de novo protein synthesis. Type of series: cell-based, human. The note with it: MDA-MB-231 and HeLa; 18 h; 30 μM 4, 10 μM 5. From the text: Cells were subsequently harvested as described before (see Myristic Acid Analogue (YnMyr) Tagging Experiments).
Series [10] has as its system lysosomal acid ceramidase. Details: method as in Raisova et al., 2002. The following applies: various cancer cell lines, >5 μM 4; ref Raisova et al., 2002; cited from earlier work.
In series [11] the test system is MDA-MB-231 and HeLa cells. Briefly: Bright-field microscopy. The following applies: both cell lines; 18 h; 30 μM 4, 10 μM 5. Type of series: cell-based, human.
In the next series the test system is human NMT1. The note with it: ref Kim et al., 2017; read-out: biochemical human NMT1 IC50; cited from earlier work.
Series [12] concerns HeLa cells. The experiment in a line: Apoptosis, active caspase-3 staining by FACS. The note with it: 18 h, 30 μM 4, 10 μM 5.
For series [13], the system named is NMT (in-cell target engagement, ARL1). The experiment in a line: Sortase A assay (peptide addition to ARL1), murine cells. The following applies: MEF and NIH3T3 cells; 100, 10 and 1 μM 4. Type of series: cell-based.
Protocol: as §1
The mark [14] stands for this setting: range of concentrations, 24, 48, 72 h.
[15] abbreviates: recombinant human NMT1, mean of two independent assays in triplicate, values for 3 and 4 extrapolated, read-out: In Vitro IC50, This Article.

By pKd is commonly meant the negative decadic logarithm of the Kd, by convention in mol/L. For orientation: pIC50 means −log10 of the IC50, conventionally taken in molar units. As for `Cc1nn(C)c(C)c1CCOc1c(-c2ccc3c(c2)c(CN(C)C)nn3C)ccc(F)c1F` [Compound 2, IMP-1088], on both NMTs, the pKd was ~9.70. Moreover, the “concentration at which the compound precipitated (absorbance at 750 nm)” value (from here on “concentration … (absorbance at 750 nm)”) in series [1] is “above 300 μM”. In addition, the “N-myristoylation in cells (summary of assays)” value was “complete inhibition” in [2]; “complete and specific inhibition” in series [2] (listed as IMP-1088). The “concentration for complete inhibition of in-cell N-myristoylation above the IC50 toward recombinant NMT1” value in [2] (approximately) is 30- to 100 fold. The N-myristoylation in cells entry in series [3] (low nanomolar concentrations, ref Mousnier et al., 2018) is given as “completely inhibited”. Besides, the “NMT engagement (sortase A)” value in [4] (all cell lines tested (panel of nine, incl. murine MEF and NIH3T3)) is recorded as “engaged NMT”. The “effect on proliferation (nuclei counts)” value in the series with MDA-MB-231 cells (setting [14]) is “only after 48 and 72 h”. In addition, in series [5], the “hierarchical one-minus Pearson correlation clustering of enrichment of N-myristoylated proteins” value is reported as “very similar to that of control cells not treated with YnMyr”. Further, the pIC50 was 9.62 in [6] and > 9.00 with human NMTs (ref Mousnier et al., 2018).
Turning to `CCCCCCCCCCCCC(O)C(=O)O` (centres unmarked) [Compound 3, 2-hydroxymyristic acid], in [7], the “effect of addition to medium” value was “precipitation in the medium and cell death”. The “concentration … (absorbance at 750 nm)” value in [1] turned out to be 300 µM. Besides, the “N-myristoylation in cells (summary of assays)” value in series [2] was “did not inhibit”; in series [2] (listed as 2-Hydroxymyristate) it was “inactive”; in [2] (listed as 2-hydroxymyristic acid), “unaffected”. The “quantification of YnMyr tagging of ten bands” value in series [2] is “at most a minor reduction”. Moreover, the “metabolic labeling of cells with [3H]myristate” value in [3] (100 μM to 1 mM, ref Vaandrager et al., 1996, Tan et al., 2016) is “reduce metabolic labeling”. Besides, in series [4] (Jurkat, HEK293 and NCI-H23 cells, 100, 10 and 1 μM 3), the “NMT inhibition (sortase A)” value is on record as “did not inhibit NMT”. Besides, the “effect on proliferation (nuclei counts)” value with MDA-MB-231 cells (setting [14]) is “unaffected”. The “hierarchical one-minus Pearson correlation clustering of enrichment of N-myristoylated proteins” value in series [5] is listed as “do not affect NMT activity”. Also, the “inhibition of recombinant NMT1” value in series [6] (100 μM 3, while soluble) is recorded as “did not inhibit”. Besides, the rNMT1 activity result in series [6] is “not reduced”. The pIC50 in series [6] (setting [15]) is < 3.52; in the series with human NMTs (ref Paige et al., 1990), 4.00.
Regarding `CCCCCCCCCCCCCC(=O)N[C@H](CO)[C@H](O)c1ccc([N+](=O)[O-])cc1` [Compound 4, D-NMAPPD], in the series on HeLa cells [8], the “depletion of S phase compared with MDA-MB-231” value is listed as “correspondingly lower depletion of S phase”. Besides, in series [1], the “concentration … (absorbance at 750 nm)” value came to 300 µM. The “N-myristoylation in cells (summary of assays)” value in [2] is “unaffected”. In addition, the “quantification of YnMyr tagging of ten bands” value in [2] was “at most a minor reduction”. The negative logarithm of the IC50 (pIC50) is ~4.82 in series [3] (ref Kim et al., 2017, read-out: IC50, capacity to reduce N-myristoylation in living cells); < 3.52 in series [6] (setting [15]); 4.11 in the series with human NMT1. In addition, the “NMT inhibition (sortase A)” value in [4] (PC-3 cells, 100, 10 and 1 μM 4) is on record as “no effect”; in series [13] it was “no effect”. Further, in the series on MDA-MB-231 cells (30 μM 4, 24, 48, 72 h), the “effect on proliferation (nuclei counts)” value is “hindered proliferation equally at all time points”. In addition, the “decrease in L-AHA labeling” value in [9] is 40%–80%. Also, the “hierarchical one-minus Pearson correlation clustering of enrichment of N-myristoylated proteins” value in series [5] is on record as “do not affect NMT activity”. In series [6], the rNMT1 activity entry is on record as “not reduced”. For the same compound, in series [10], the “increase of ceramide concentrations” value was “up to 12 fold”. For the same compound, in series [11], the cell morphology result is reported as “more rounded apoptotic cells”. Besides, in the series with HeLa cells [12], the “induction of apoptosis compared with MDA-MB-231” value is given as “less induction of apoptosis”.
